We go through 33 compounds from PubChem BioAssay AID489027 (Sanford-Burnham Center for Chemical Genomics, 2010).

pEC50: −log10 of the molar value. The source made the active and inactive calls. No rule for the calls is given here.

Usually EC50 stands for the concentration needed to bring the measured effect to its halfway point. Broadly, the pEC50 is −log10 of the EC50, conventionally taken in molar units.

This experiment deals with UPR counterscreen luciferase reporter, luminescence. Kind of experiment: activators in UPR counterscreen luciferase reporter, dose response, counter-screen for adaptive UPR activator project, cell-based, luminescence (AID 489027). On the technique in general: The purpose of a counterscreen is to sort out artefacts and off-target activity.
Regarding `CCOC(=O)/C=c1\s/c(=C\c2ccc3cc(OC)ccc3c2)c(=O)n1CC(=O)NCC1CCCO1` (stereo not drawn), the EC50 is > 80 µM (inactive).

For `COc1ccccc1Nc1nnc(SCC(=O)NC(=O)Nc2ccc3c(c2)OCCO3)s1`, the EC50 was > 80 µM (inactive).

For `CN(C)CCCn1cnc2c(c1=N)C(c1ccccc1)c1ccc3ccccc3c1O2` (stereo not drawn), the pEC50 is 5.11. Consider `CC1(C)C=Cc2c(c3c(c4c(=O)c(-c5ccc(O)cc5)coc24)OC(C)(C)CC3)O1`, for which the pEC50 was 4.88. As to `CCc1nc(N=Nc2c(O)[nH]c3ccccc23)c2c3c(sc2n1)CCC3`, the pEC50 was 4.97. On to `CC(=O)Oc1ccc(-c2ccc(C(=O)OCC(=O)N(C)CC(=O)Nc3ccccc3Cl)cc2)cc1`, for which the pEC50 was 5.52.

Turning to `Cc1cccc(N2CCN(C(=S)Nc3ccc4nc(N5CCN(C)CC5)cc(C)c4c3)CC2C)c1` (stereo not drawn), the EC50 is > 80 µM (inactive). With `Cc1cc(C)c2c(n1)sc1c(-c3ccccc3)c(C#N)c(N)nc12`, the EC50 was > 80 µM (inactive). Regarding `CCCn1c(SCc2nc3sc(C)c(C)c3c(=O)[nH]2)nc2ccccc2c1=O`, the EC50 was > 80 µM (inactive).

With `Clc1ccc(C2=Nn3c(nnc3-c3cc(-c4ccccc4)n[nH]3)SC2)cc1`, the pEC50 was 4.92. Take `COc1cc(NC(=O)c2cccs2)ccc1NC(=O)c1cc2ccccc2o1`: the EC50 was > 80 µM (inactive).

As to `Cc1ccc(Cc2cnc(NC(=O)/C(C#N)=C/c3ccc(-c4ccc([N+](=O)[O-])cc4)o3)s2)cc1`, the pEC50 was 4.95. For `CC(C)(C)c1cc(-c2nc(N)nc(N)n2)c(O)c(C(C)(C)C)c1`, the EC50 result is “inactive”. Still for that read-out and setting: as for `CC(C)Cn1c2c(c(=O)[nH]c1=O)C(C(F)(F)F)(C(F)(F)F)N=C(CCC1CCCCC1)N2`, the entry is “inactive”. On to `COc1ccc2cc(C)c3nnc(SCC(=O)Nc4nc(-c5ccc(F)cc5)cs4)n3c2c1`, for which the pEC50 is 4.89.

As to `CCOC(=O)C1=C(C)N=C2c3ccccc3C(=O)C2C1c1ccc(C)cc1` (stereo not drawn), the EC50 is > 80 µM (inactive).

As for `O=C(COC(=O)c1ccc2[nH]c3c(c2c1)CCCC3)Nc1ccccc1Cl`, the EC50 was > 80 µM (inactive).

Regarding `CC1CCN(Cc2c(C(=O)N/N=C/c3ccc(C(C)C)cc3)nnn2-c2nonc2N)CC1`, the EC50 result is “inactive”.

`O=c1[nH]c(O)c(/C=C2/C=CC(c3cc(Cl)ccc3Cl)=N2)c(=O)[nH]1`: the pEC50 is 5.21.

Turning to `NC(=O)CC(NC(=O)Cc1cccc2ccccc12)c1ccc(NCCOc2ccccc2)c([N+](=O)[O-])c1` (stereo not drawn), the EC50 is > 80 µM (inactive). As to `CCOC(=O)c1cc(-c2ccccc2)sc1NC(=O)c1ccc(OC)cc1`, the EC50 entry is “inactive”. Same read-out and setting: as for `CCOC(=O)C(=CNc1nc(-c2ccccc2)c(C(=O)Nc2ccc(-c3ccccc3)cc2)s1)C(=O)OCC`, the entry is “inactive”; as for `CCCCCn1c(N)c(-c2nc3ccccc3o2)c2c([N+](=O)[O-])nn(CC)c(=O)c21`, “inactive”.

In the case of `CC(C)(C)C(=O)NC(=S)NNC(=O)c1ccc(-c2ccccc2)cc1`, the pEC50 was 5.09. As to `CCN(CC)c1ccc(/C=C/[N+](=O)[O-])cc1`, the pEC50 was 4.95.

`C=CCN(CC=C)S(=O)(=O)c1ccc(C(=O)Nc2nc3c(s2)CCc2ccccc2-3)cc1`: the EC50 was > 80 µM (inactive). With `Cc1ccc(Nc2nc3ccc(Cl)cc3n3cnnc23)cc1F`, the EC50 entry was “inactive”. For the compound `CN(C)CCCN(C(=O)c1cc(-c2cccs2)nc2ccccc12)c1nc2ccc(F)cc2s1`, the pEC50 was 4.80.

`CCC1(c2ccc(F)cc2)NC(=O)N(CC(=O)Nc2ccc(-c3nc4ccc(C)cc4s3)cc2)C1=O` (stereo not drawn): the EC50 was > 80 µM (inactive). Consider `Oc1ccc(Br)cc1/C=N/Nc1ccccn1`, for which the EC50 is > 80 µM (inactive).

`CN(C)S(=O)(=O)c1ccc(N2CCCC2)c(C(=O)Nc2nccs2)c1`: the EC50 entry is “inactive”.

On to `O=C(CSc1nc2ccccc2c(=O)n1-c1ccccc1)N1CCc2ccccc21`, for which the EC50 result was “inactive”. Regarding `CCOc1cc(/C=N/NC(N)=S)cc(Br)c1OCc1ccccc1C`, the pEC50 was 4.90.
